Assay results: patent US20140243332A1, “METHODS OF TREATING CANCERS CHARACTERIZED BY ABERRENT ROS1 ACTIVITY” (Oregon Health & Science University, priority 2013, published 2014)
Values joined by “and” are separate entries in the source; they are usually repeats but may differ in a detail not shown here. Identical values can stand only once. Like-named read-outs stand apart in the source and are kept apart here. One block for each compound: values may come before it.

Assays:
HCC78 cells = assay: Cell viability (MTS) assay, HCC78; assay type: cell-based, human
Protocol: (§1) The parental Ba/F3 cell line was cultured in RPMI 1640 medium with 10% FBS, L-glutamine, penicillin/streptomycin and 15% WEHI-conditioned media. Ba/F3 cell lines were maintained at densities of 0.5×10^6 to 1.5×10^6 per ml of media. FIG-ROS and SLC-ROS Ba/F3 lines were created by infecting the parental Ba/F3 with retrovirus expressing either human FIG-ROS-S (indicated FIG-ROS herein) or SLC-ROS-S (indicated SLC-ROS herein). Stable transfectant lines were sorted for GFP expression on a FACS Aria® flow cytometer. Cells were counted daily using Guava ViaCount® reagent and Guava Personal Cell Analysis® flow cytometer. […] Early passage NIH3T3 cells were infected with retrovirus expressing either FIG-ROS or SLC-ROS and sorted for GFP expression as described above for Ba/F3 cells. HCC78 cells were cultured in RPMI 1640 medium with 10% FBS, L-glutamine, and penicillin/streptomycin. This media is referred to as RPMI-10% FBS herein.

Ba/F3 FIG-ROS cells = target: T1, Ba/F3 FIG-ROS cells (Homo sapiens, UniProt P08922); assay: Cell viability (MTS) assay, Ba/F3 FIG-ROS; assay type: cell-based; settings: read-out: IC50 (50% growth inhibitory concentration); Ba/F3 FIG-ROS cells, 72 hours, MTS
T1 construct: fused on or other part: GFP is co-expressed from an IRES in pMIG and is not fused; Q9HD26 (Golgi-associated PDZ and coiled-coil motif-containing protein)
T1 sequence (P08922 whole entry, change not shown, the tested form may be a part): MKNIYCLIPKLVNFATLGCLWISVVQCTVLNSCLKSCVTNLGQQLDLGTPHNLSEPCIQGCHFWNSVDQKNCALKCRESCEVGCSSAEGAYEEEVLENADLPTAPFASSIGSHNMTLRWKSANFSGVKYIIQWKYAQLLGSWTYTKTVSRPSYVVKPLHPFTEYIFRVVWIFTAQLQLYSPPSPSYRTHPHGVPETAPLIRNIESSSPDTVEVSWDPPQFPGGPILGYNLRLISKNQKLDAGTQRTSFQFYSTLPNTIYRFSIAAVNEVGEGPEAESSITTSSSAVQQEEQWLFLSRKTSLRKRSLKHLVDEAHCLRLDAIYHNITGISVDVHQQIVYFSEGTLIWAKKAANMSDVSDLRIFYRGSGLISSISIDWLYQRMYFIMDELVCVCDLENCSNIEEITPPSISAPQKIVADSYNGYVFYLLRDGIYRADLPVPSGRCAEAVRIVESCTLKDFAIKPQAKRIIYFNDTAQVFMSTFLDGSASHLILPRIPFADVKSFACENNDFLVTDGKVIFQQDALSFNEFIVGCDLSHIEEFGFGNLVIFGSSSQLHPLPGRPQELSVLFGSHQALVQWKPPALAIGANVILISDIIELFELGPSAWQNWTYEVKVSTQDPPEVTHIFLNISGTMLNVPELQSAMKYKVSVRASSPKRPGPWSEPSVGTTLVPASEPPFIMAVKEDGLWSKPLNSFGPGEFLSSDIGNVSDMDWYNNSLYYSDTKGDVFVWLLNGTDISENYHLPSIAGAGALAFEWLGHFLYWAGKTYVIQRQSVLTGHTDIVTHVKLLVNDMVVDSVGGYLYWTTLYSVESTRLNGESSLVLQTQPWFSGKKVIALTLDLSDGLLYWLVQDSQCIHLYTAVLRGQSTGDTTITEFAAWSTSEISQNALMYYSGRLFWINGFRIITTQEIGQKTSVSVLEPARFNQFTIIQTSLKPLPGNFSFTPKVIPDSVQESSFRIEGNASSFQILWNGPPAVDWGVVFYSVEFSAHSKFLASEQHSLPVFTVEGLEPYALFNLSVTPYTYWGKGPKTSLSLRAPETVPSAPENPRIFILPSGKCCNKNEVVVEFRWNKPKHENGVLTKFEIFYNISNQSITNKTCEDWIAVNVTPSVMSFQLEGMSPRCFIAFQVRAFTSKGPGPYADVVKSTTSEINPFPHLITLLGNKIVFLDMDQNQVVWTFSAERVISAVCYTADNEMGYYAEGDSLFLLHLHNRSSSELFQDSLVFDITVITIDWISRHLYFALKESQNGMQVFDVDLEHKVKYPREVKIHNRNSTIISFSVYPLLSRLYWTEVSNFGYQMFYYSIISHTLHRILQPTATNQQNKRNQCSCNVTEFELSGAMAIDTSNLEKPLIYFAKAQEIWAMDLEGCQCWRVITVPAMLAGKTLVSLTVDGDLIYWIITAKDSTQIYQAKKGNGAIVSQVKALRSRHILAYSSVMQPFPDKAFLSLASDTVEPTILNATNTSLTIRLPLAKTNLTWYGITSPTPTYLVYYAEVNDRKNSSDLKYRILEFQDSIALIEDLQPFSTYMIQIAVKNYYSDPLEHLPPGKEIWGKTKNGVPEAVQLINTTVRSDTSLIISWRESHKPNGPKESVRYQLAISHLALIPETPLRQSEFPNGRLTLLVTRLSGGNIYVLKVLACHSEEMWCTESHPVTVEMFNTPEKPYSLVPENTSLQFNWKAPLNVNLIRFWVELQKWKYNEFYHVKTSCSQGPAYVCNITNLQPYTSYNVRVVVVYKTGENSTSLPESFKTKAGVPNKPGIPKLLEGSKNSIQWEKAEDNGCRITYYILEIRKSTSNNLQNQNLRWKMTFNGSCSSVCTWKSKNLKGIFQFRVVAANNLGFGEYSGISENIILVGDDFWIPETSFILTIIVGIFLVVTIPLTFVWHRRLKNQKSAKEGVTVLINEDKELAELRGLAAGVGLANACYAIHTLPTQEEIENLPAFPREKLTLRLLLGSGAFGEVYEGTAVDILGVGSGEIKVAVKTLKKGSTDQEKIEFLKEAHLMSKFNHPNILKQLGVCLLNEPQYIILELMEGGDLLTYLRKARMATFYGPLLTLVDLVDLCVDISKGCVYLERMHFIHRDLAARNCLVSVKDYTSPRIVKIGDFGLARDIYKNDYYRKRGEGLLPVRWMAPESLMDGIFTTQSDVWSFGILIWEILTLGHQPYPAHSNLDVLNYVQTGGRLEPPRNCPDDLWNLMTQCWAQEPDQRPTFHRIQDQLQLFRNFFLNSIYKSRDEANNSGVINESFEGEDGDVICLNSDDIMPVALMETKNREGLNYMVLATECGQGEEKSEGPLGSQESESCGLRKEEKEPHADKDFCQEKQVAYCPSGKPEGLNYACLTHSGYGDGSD
Source text: as §1, with “Ba/F3” for “The parental Ba/F3 cell line was cultured in RPMI 1640 medium with 10% FBS, L-glutamine, penicillin/streptomycin and 15% WEHI-conditioned media. Ba/F3”, “HCC78 cells were cultured in RPMI 1640 medium with 10% FBS, L-glutamine, and penicillin/streptomycin.” left out
The FIG-ROS-S (FIG-ROS) fusion protein has been reported in non-small cell lung cancers (NSCLC), glioblastomas, and cholangiocarcinomas.

Ba/F3 SLC-ROS cells = target: T2, Ba/F3 SLC-ROS cells (Homo sapiens, UniProt P08922); assay: Cell viability (MTS) assay, Ba/F3 SLC-ROS; assay type: cell-based; settings: 72 hours, read-out: IC50 (the source's name)
T2 construct: SLC-ROS-S (SLC-ROS) was cloned from cDNA made from HCC78 cells; fused on or other part: GFP is co-expressed from an IRES in pMIG and is not fused; O95436 (Sodium-dependent phosphate transport protein 2B)
T2 sequence (P08922 whole entry, change not shown, the tested form may be a part): as above
Protocol: as §1
(§2) […]. The Ba/F3 parental line was also tested. (O'Dwyer M E and Druker B J, Lancet Oncology 1, 207-211 (2000); Walters D K et al, Cancer Cell 10, 65-75 (2006); and Heukamp L C et al, Science Translational Medicine 4, 141ra191 (2012); […].

Ba/F3 parental cells = assay: Cell viability (MTS) assay, Ba/F3 parental; assay type: cell-based
Protocol: as §1, §2

FIG-ROS [1] = target: T3, FIG-ROS (Homo sapiens, UniProt P08922); assay: Immunoblot of Ba/F3 FIG-ROS lysates; assay type: cell-based; set-up: expressed in transfected cells; host or cells: Ba/F3 (A14), retroviral pMSCV-IRES-GFP; the other entry of the earlier key: GOPC (Q9HD26, Golgi-associated PDZ and coiled-coil motif-containing protein); settings: Ba/F3 FIG-ROS cells, increasing amounts, immunoblot FIG. 1C
T3 sequence (P08922 with tags, fused parts or gaps): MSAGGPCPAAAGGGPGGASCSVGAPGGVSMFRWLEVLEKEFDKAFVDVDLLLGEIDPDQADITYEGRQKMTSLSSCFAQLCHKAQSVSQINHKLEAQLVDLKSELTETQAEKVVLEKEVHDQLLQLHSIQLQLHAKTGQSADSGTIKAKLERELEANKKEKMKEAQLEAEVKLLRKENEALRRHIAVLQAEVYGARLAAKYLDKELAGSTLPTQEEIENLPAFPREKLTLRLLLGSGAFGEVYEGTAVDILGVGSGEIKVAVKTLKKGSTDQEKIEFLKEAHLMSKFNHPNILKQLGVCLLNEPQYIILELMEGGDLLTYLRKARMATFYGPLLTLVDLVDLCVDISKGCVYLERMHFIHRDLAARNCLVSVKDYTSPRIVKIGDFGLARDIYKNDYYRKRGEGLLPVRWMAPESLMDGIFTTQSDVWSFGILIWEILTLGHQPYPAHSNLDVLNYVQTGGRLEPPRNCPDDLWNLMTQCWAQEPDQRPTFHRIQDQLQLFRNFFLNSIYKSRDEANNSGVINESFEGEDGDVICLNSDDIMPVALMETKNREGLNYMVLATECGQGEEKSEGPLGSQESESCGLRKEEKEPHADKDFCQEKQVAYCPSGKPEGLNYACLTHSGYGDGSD
Protocol: (§3) FIG. 1C is an image of an immunoblot of lysates of Ba/F3 FIG-ROS and Ba/F3 SLC-ROS and the indicated downstream effectors after treatment with the indicated compounds. Images shown are representative of three independent experiments.
(§4) Ba/F3 FIG-ROS, Ba/F3 SLC-ROS, HCC78 and mCC cell lines were treated with the indicated concentration of inhibitors for 1-2 hours. […] The protein content of the cell lysates was determined and lysates were either used for immunoprecipitation where indicated or extracted with SDS Sample buffer for 15 minutes at 80° C. Proteins were transferred to Immobilon-FL membranes and immunoblotted with antibodies specific for phospho-ROS1 (Cell Signaling Technology (CST) #3078), total ROS1 (CST #3266), phopsho-Shp2 (CST #3751), total Shpt (CST #3752), phospho-Stat3 (CST #9145), total Stat3 (CST #4904), phospho-Erk1/2 (CST #9101), total Erk2 (Santa Cruz #SC-1647), phospho-S6 (CST #4858), total S6 (CST #2216), phospho-Src (CST #2105), total Src (CST #2110), α-tubulin (Sigma T6199), or β-actin (Sigma A1978) as indicated. Images of the blots were generated by the LI-COR Odyssey® imaging system, following the manufacturer's protocol for immunoblot detection with use of IR-dye conjugated secondary antibodies.

SLC-ROS = SLC-ROS (Homo sapiens, UniProt P08922); assay: Immunoblot of Ba/F3 SLC-ROS lysates; assay type: cell-based; set-up: SLC34A2 N-terminal portion, fusion partner; expressed in transfected cells; host or cells: Ba/F3 (A15), retroviral pMIG; the other entry of the earlier key: SLC34A2 (O95436, Sodium-dependent phosphate transport protein 2B); settings: Ba/F3 SLC-ROS cells, increasing amounts, immunoblot FIG. 1C
SLC-ROS, sequence (P08922 with tags, fused parts or gaps): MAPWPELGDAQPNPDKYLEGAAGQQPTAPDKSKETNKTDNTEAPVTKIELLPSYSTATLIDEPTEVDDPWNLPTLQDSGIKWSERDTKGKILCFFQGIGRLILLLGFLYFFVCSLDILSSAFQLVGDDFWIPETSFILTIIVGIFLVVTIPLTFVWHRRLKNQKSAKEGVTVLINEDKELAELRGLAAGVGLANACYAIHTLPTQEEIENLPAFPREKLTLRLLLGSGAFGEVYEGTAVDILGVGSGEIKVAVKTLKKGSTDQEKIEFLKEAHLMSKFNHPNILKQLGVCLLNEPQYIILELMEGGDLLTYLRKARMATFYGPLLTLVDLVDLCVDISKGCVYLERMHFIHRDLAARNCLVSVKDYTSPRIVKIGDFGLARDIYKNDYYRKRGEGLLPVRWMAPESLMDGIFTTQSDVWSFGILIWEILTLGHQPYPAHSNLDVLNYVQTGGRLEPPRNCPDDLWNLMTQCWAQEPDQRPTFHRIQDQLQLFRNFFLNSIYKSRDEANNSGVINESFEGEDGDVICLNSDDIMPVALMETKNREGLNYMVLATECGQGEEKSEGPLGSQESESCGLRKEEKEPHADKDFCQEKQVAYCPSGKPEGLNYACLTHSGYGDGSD
Protocol: as §3, §4

PC9 cells = assay: Cell viability assay, PC9; assay type: cell-based, human; settings: PC9 cells (activated EGFR), FIG. 6B
Protocol: (§5) IC50 was determined from non-linear regression curve fit analysis of the dose response curves.

HCC4011 cells = assay: Cell viability assay, HCC4011; assay type: cell-based, human; settings: HCC4011 cells (activated EGFR), FIG. 6B
Protocol: as §5

[2] = system: FIG-ROS murine cholangiocarcinoma tumor cells; assay: cells; settings: Mus musculus, read-out: IC50 cell growth
Protocol: (§6) Hepatoblasts of the genotype AlbCre^+/−; Isl Kras^G12D+/−; p53^R172H/loxp were isolated from ED14.5 mouse embryos and retrovirally transduced with either the FIG-ROS fusion, turbo RFP or a short hairpin RNA against Pten (shPten.1522). At 48 hours following transduction, 1×10^6 cells were resuspended in 25 μl Matrigel and injected sub-capsular into the livers of immune-deficient mice. Upon tumor formation, tumors were explanted and subjected to collagenase digestion. Digests were plated onto gelatin-coated plates. Tumor cells were enriched by either differential trypsinization or cell sorting. […] These four cell lines were further cultured and maintained in DMEM-High glucose medium supplemented with 10% FCS, L-glutamine and penicillin/streptomycin.
(§7) Cell lines were distributed in 96-well plates and incubated with the indicated concentrations of inhibitor for 72 hours. […] Ba/F3 cell lines were plated at 4×10^3 cells/well. HCC78 and mCC cell lines were plated at 1.5×10^3 cells/well. All cell types were seeded in a final volume of 80 microliters. A 20 microliter volume of five-fold concentrated inhibitor media was added. Cell proliferation was measured using a […] viability assay (CellTiter96 Aqueous One® Solution; Promega). A BioTek Synergy 2® plate reader was used to read the absorbance at 490 nm at 30 minutes and 1 hour after addition of MTS. To facilitate comparison between experiments, the raw MTS absorbance of vehicle (0.1% DMSO) treated cells was set to 1 and absorbance from inhibitor treated wells was normalized to the vehicle treated value. […] Data were normalized using Microsoft Excel® and further non-linear regression curve fit analysis of the normalized data for determination of IC50 was performed using Graphpad Prism® software.
(§8) To directly assess inhibition of FIG-ROS phosphorylation, immunoblot analyses of lysates from vehicle or inhibitor-treated cells were performed.

[3] = system: shPten murine cholangiocarcinoma tumor cells; assay: cells; settings: Mus musculus, read-out: IC50 cell growth
Protocol: as §6, §7, §8

[4] = system: FIG-ROS cholangiocarcinoma tumor cells; assay: Anchorage-independent colony formation in soft agar, FIG-ROS cholangiocarcinoma cells; assay type: cell-based, murine; settings: dose dependent
Source text: […]. The values indicate the mean and the error bars indicate the standard error of the mean of 3 independent wells.
(§9) . The inhibition was dose dependent (FIG. 2B). […].

FIG-ROS tumors = assay: In vivo treatment of mice bearing subcutaneous FIG-ROS cholangiocarcinoma tumors; settings: 25 mg/kg oral gavage once daily, 9 days, immunodeficient mice; foretinib p<0.0001 for Lines 4 and 6
[5] = system: ENU-treated Ba/F3 FIG-ROS cells; assay: Accelerated cell-based (ENU) mutagenesis screen, outgrowth of Ba/F3 FIG-ROS clones
FIG-ROS [6] = target: T3, FIG-ROS; assay: Immunoblot of FIG-ROS murine cholangiocarcinoma cell lysates; assay type: cell-based; set-up: expressed in transfected cells; host or cells: murine cholangiocarcinoma tumour cell lines (lines 3 and 4) derived from transduced mouse hepatoblasts; the other entry of the earlier key: GOPC (Q9HD26, Golgi-associated PDZ and coiled-coil motif-containing protein); settings: 100 nM, FIG-ROS murine cholangiocarcinoma cells
Protocol: […]. Images shown are representative of three independent experiments.
as §4, §9

Ba/F3 ALK F1174L cells = Ba/F3 ALK F1174L cells (Homo sapiens, UniProt Q9UM73, F1174L, cells depend on it); assay: Cell viability (MTS) assay, Ba/F3 ALK F1174L; assay type: cell-based; settings: 72 hours, read-out: IC50 (the source's name)
Ba/F3 Bcr-Abl cells = Ba/F3 Bcr-Abl cells (Homo sapiens, UniProt P00519); assay: Cell viability (MTS) assay, Ba/F3 Bcr-Abl; assay type: cell-based; settings: read-out: IC50 (insensitive/resistant up to stated concentration)
Ba/F3 JAK3 A572V cells = Ba/F3 JAK3 A572V cells (Homo sapiens, UniProt P52333, A572V, cells depend on it); assay: Cell viability (MTS) assay, Ba/F3 JAK3 A572V; assay type: cell-based; settings: read-out: IC50 (insensitive/resistant up to stated concentration)
Ba/F3 JAK3 A572V cells, sequence (P52333 whole entry A572V): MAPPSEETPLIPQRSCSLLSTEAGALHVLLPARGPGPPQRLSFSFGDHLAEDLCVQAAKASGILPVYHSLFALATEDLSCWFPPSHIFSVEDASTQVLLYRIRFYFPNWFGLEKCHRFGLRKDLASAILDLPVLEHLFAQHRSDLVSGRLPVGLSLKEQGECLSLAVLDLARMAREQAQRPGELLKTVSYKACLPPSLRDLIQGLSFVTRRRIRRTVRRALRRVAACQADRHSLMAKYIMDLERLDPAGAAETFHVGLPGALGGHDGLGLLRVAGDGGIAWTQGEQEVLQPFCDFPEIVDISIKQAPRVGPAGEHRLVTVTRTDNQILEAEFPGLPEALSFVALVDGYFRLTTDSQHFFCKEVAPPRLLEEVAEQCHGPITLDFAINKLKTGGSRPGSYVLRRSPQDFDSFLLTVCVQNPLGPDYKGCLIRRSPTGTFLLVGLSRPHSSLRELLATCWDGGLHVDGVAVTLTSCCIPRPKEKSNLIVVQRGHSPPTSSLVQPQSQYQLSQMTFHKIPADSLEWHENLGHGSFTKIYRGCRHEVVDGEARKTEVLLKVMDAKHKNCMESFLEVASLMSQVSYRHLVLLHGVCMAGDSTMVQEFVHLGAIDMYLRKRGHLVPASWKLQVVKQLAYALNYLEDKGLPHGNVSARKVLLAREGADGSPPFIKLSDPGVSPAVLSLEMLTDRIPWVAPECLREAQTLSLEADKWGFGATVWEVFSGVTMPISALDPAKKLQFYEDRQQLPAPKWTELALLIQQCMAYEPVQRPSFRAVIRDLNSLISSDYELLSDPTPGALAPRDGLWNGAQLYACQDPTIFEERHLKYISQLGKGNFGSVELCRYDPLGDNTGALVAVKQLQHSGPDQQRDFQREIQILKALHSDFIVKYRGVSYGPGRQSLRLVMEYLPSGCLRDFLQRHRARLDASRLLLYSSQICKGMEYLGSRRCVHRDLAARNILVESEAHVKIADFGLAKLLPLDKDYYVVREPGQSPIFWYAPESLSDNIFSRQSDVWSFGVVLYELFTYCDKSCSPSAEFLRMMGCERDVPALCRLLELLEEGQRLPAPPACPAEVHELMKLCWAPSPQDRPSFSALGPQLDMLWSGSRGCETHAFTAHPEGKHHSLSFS

SMILES: Cn1cc(-c2ccc3nnc(Sc4ccc5ncccc5c4)n3n2)cn1 [SGX-523]
HCC78 cell growth sensitivity to MET inhibitors (HCC78 cells; FIG. 6C): resistant

autophosphorylation of FIG-ROS and ROS1-driven signaling (phospho-Shp2, phospho-ERK1/2) (FIG-ROS [1]): dose dependent decrease
autophosphorylation of SLC-ROS and ROS1-driven signaling (phospho-Shp2, phospho-ERK1/2) (SLC-ROS): dose dependent decrease
SMILES: COc1cc(N2CCC(N3CCN(C)CC3)CC2)ccc1Nc1ncc(Cl)c(Nc2ccccc2S(=O)(=O)C(C)C)n1 [TAE684]
GI50 (Ba/F3 FIG-ROS cells): 2 nM and 1.8 nM
GI50 (Ba/F3 SLC-ROS cells): 28 nM
IC50 (Ba/F3 parental cells; Mus musculus, BaF3, Ba/F3 parental cells, read-out: IC50 (insensitive/resistant up to stated concentration)): > 2000 nM

IC50 (HCC78 cells; Homo sapiens, 72 hour exposure, read-out: IC50 HCC78 cell growth): 2200 nM
autophosphorylation of FIG-ROS and ROS1-driven signaling (phospho-Shp2, phospho-ERK1/2) (FIG-ROS [1]): dose dependent decrease
autophosphorylation of SLC-ROS and ROS1-driven signaling (phospho-Shp2, phospho-ERK1/2) (SLC-ROS): dose dependent decrease
auto-phosphorylation of FIG-ROS and phosphorylation of Shpt and ERK1/2 (FIG-ROS [6]): more moderate effect
SMILES: C[C@@H](Oc1cc(-c2cnn(C3CCNCC3)c2)cnc1N)c1c(Cl)ccc(F)c1Cl [crizotinib]
IC50 (Ba/F3 parental cells; Mus musculus, BaF3, read-out: IC50 (insensitive/resistant up to stated concentration)): > 2000 nM
sensitivity of cell growth (PC9 cells): relatively insensitive
sensitivity of cell growth (HCC4011 cells): relatively insensitive
IC50 [2]: 690 nM
IC50 [3]: > 2000 nM
anchorage-independent colonies in soft agar [4]: inhibited
FIG-ROS tumor volume (FIG-ROS tumors): moderate but statistically insignificant effect
frequency of outgrowth of clones ([5]; 500 nM crizotinib): 40%
outgrowth of clones ([5]; 2000 and 2500 nM crizotinib): no outgrowth of clones

SMILES: CNC(=O)c1c(F)cccc1Nc1nc(Nc2cc3c(cc2OC)CCN3C(=O)CN(C)C)nc2[nH]ccc12 [GSK1838705A]
GI50 (Ba/F3 FIG-ROS cells): 250 nM
GI50 (Ba/F3 SLC-ROS cells): 1000 nM
GI50 (Ba/F3 ALK F1174L cells): 10 nM
GI50 (Ba/F3 Bcr-Abl cells): > 10000 nM
GI50 (Ba/F3 JAK3 A572V cells): > 10000 nM
IC50 (Ba/F3 parental cells; Ba/F3 parental cells, read-out: IC50 (insensitive/resistant up to stated concentration)): > 10000 nM
